Measurements taken from ChEMBL document CHEMBL1201862, “PubChem BioAssay data set” (2004).
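Protocol summary: plate cells (96-well), add compound at 5 concentrations, incubate 48 h, interpolate endpoints linearly. Here, GI50 denotes the concentration required for 50% inhibition of growth.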 Calls of active or inactive are those of the source. No stated cut-off is given here; in the data, active = GI50 up to about 1.1 µM and inactive = higher.

Experiments:
Assay in all cases: NCI-60 cell line screen, 48 h
786-0 = system: 786-0
A498 = system: A498
A549 = system: A549
ACHN = system: ACHN
BT-549 = system: BT-549
CAKI-1 = system: CAKI-1
CCRF-CEM = system: CCRF-CEM
COLO 205 = system: COLO 205
DU-145 = system: DU-145
EKVX = system: EKVX
HCC 2998 = system: HCC 2998
HCT-116 = system: HCT-116
HCT-15 = system: HCT-15
HL-60 = system: HL-60
HOP-62 = system: HOP-62
HOP-92 = system: HOP-92
HT-29 = system: HT-29
Hs-578T = system: Hs-578T
IGROV-1 = system: IGROV-1
KM12 = system: KM12
LOX IMVI = system: LOX IMVI
M14 = system: M14
MCF7 = system: MCF7
MDA-MB-231 = system: MDA-MB-231
MDA-MB-435 = system: MDA-MB-435
MDA-N = system: MDA-N
MOLT-4 = system: MOLT-4
Malme-3M = system: Malme-3M
NCI-H226 = system: NCI-H226
NCI-H23 = system: NCI-H23
NCI-H522 = system: NCI-H522
NCI/ADR-RES = system: NCI/ADR-RES
OVCAR-3 = system: OVCAR-3
OVCAR-4 = system: OVCAR-4
OVCAR-5 = system: OVCAR-5
OVCAR-8 = system: OVCAR-8
PC-3 = system: PC-3
RPMI-8226 = system: RPMI-8226
RXF 393 = system: RXF 393
SF-268 = system: SF-268
SF-295 = system: SF-295
SF-539 = system: SF-539
SK-MEL-28 = system: SK-MEL-28
SK-MEL-2 = system: SK-MEL-2
SK-MEL-5 = system: SK-MEL-5
SK-OV-3 = system: SK-OV-3
SN12C = system: SN12C
SNB-19 = system: SNB-19
SNB-75 = system: SNB-75
SR = system: SR
SW-620 = system: SW-620
T47D = system: T47D
TK-10 = system: TK-10
U-251 = system: U-251
UACC-257 = system: UACC-257
UACC-62 = system: UACC-62
UO-31 = system: UO-31
K562 = system: K562
NCI-H460 = system: NCI-H460

`Cc1ccc(N2C(N)=C(C#N)C(C#N)(C#N)C2c2ccccc2)cc1` (configuration not stated) was tested, and the GI50 (786-0) was 14.2 µM (inactive), the GI50 (A498) was 17 µM (inactive) and the GI50 (A549) was 16.6 µM (inactive). The GI50 (ACHN) was 14.2 µM (inactive), the GI50 (BT-549) was 10.2 µM (inactive) and the GI50 (CAKI-1) was 8.97 µM (inactive). The GI50 (CCRF-CEM) was 3 µM (inactive), the GI50 (COLO 205) was 10.2 µM (inactive) and the GI50 (DU-145) was 14.9 µM (inactive). The GI50 (EKVX) was 18 µM (inactive), the GI50 (HCC 2998) was 13 µM (inactive) and the GI50 (HCT-116) was 3.79 µM (inactive). For the same compound, the GI50 (HCT-15) was 6.71 µM, the GI50 (HL-60) was 2.75 µM (inactive) and the GI50 (HOP-62) was 19.5 µM (inactive). For the same compound, the GI50 (HOP-92) was 7.78 µM (inactive), the GI50 (HT-29) was 3.97 µM (inactive) and the GI50 (Hs-578T) was 21 µM (inactive). For the same compound, the GI50 (IGROV-1) was 6.67 µM (inactive), the GI50 (KM12) was 17.2 µM (inactive) and the GI50 (LOX IMVI) was 11.5 µM (inactive). The GI50 (M14) was 12.3 µM (inactive), the GI50 (MCF7) was 4.95 µM (inactive) and the GI50 (MDA-MB-231) was 11.5 µM (inactive). The GI50 (MDA-MB-435) was 4.03 µM (inactive), the GI50 (MDA-N) was 3.08 µM (inactive) and the GI50 (MOLT-4) was 2.31 µM (inactive). For the same compound, the GI50 (Malme-3M) was 11.5 µM (inactive), the GI50 (NCI-H226) was 19.5 µM (inactive) and the GI50 (NCI-H23) was 18.1 µM (inactive). For the same compound, the GI50 (NCI-H522) was 5.42 µM (inactive), the GI50 (NCI/ADR-RES) was 17 µM (inactive) and the GI50 (OVCAR-3) was 13.7 µM (inactive). The GI50 (OVCAR-4) was 13.4 µM (inactive), the GI50 (OVCAR-5) was 15.5 µM (inactive) and the GI50 (OVCAR-8) was 20 µM (inactive). For the same compound, the GI50 (PC-3) was 18.8 µM (inactive), the GI50 (RPMI-8226) was 11.4 µM (inactive) and the GI50 (RXF 393) was 6.64 µM (inactive). For the same compound, the GI50 (SF-268) was 24.9 µM (inactive), the GI50 (SF-295) was 18.9 µM (inactive) and the GI50 (SF-539) was 14.2 µM (inactive). The GI50 (SK-MEL-28) was 10.1 µM (inactive), the GI50 (SK-MEL-2) was 13.6 µM (inactive) and the GI50 (SK-MEL-5) was 8.63 µM (inactive). The GI50 (SK-OV-3) was 16.7 µM (inactive), the GI50 (SN12C) was 14.4 µM (inactive) and the GI50 (SNB-19) was 17.5 µM (inactive). The GI50 (SNB-75) was 13.2 µM (inactive), the GI50 (SR) was 8.65 µM (inactive) and the GI50 (SW-620) was 4.32 µM (inactive). The GI50 (T47D) was 5.74 µM (inactive), the GI50 (TK-10) was 14.4 µM (inactive) and the GI50 (U-251) was 17.3 µM (inactive). For the same compound, the GI50 (UACC-257) was 15.6 µM (inactive), the GI50 (UACC-62) was 11.4 µM (inactive) and the GI50 (UO-31) was 15.8 µM (inactive).

`CCOP(=O)(C/C=C/Cn1ncc(=O)[nH]c1=O)OCC` was tested, and the GI50 (A498) was > 100 µM (inactive), the GI50 (A549) was > 100 µM (inactive) and the GI50 (ACHN) was 63.2 µM (inactive). For the same compound, the GI50 (BT-549) was > 100 µM (inactive), the GI50 (CAKI-1) was > 100 µM (inactive) and the GI50 (CCRF-CEM) was > 100 µM (inactive). For the same compound, the GI50 (COLO 205) was > 100 µM (inactive), the GI50 (DU-145) was > 100 µM (inactive) and the GI50 (EKVX) was > 100 µM (inactive). For the same compound, the GI50 (HCC 2998) was > 100 µM (inactive), the GI50 (HCT-15) was over 100 µM and the GI50 (HL-60) was > 100 µM (inactive). For the same compound, the GI50 (HOP-62) was > 100 µM (inactive), the GI50 (HOP-92) was > 100 µM (inactive) and the GI50 (HT-29) was > 100 µM (inactive). The GI50 (Hs-578T) was > 100 µM (inactive), the GI50 (IGROV-1) was > 100 µM (inactive) and the GI50 (K562) was > 100 µM (inactive). The GI50 (KM12) was > 100 µM (inactive), the GI50 (LOX IMVI) was > 100 µM (inactive) and the GI50 (M14) was > 100 µM (inactive). The GI50 (MCF7) was > 100 µM (inactive), the GI50 (MDA-MB-231) was > 100 µM (inactive) and the GI50 (MDA-MB-435) was > 100 µM (inactive). For the same compound, the GI50 (MDA-N) was > 100 µM (inactive), the GI50 (MOLT-4) was > 100 µM (inactive) and the GI50 (Malme-3M) was > 100 µM (inactive). For the same compound, the GI50 (NCI-H226) was > 100 µM (inactive), the GI50 (NCI-H460) was > 100 µM (inactive) and the GI50 (NCI-H522) was > 100 µM (inactive). The GI50 (NCI/ADR-RES) was > 100 µM (inactive), the GI50 (OVCAR-3) was > 100 µM (inactive) and the GI50 (OVCAR-4) was > 100 µM (inactive). The GI50 (OVCAR-5) was > 100 µM (inactive), the GI50 (OVCAR-8) was > 100 µM (inactive) and the GI50 (PC-3) was > 100 µM (inactive). For the same compound, the GI50 (RPMI-8226) was > 100 µM (inactive), the GI50 (RXF 393) was > 100 µM (inactive) and the GI50 (SF-268) was > 100 µM (inactive). The GI50 (SF-539) was > 100 µM (inactive), the GI50 (SK-MEL-28) was > 100 µM (inactive) and the GI50 (SK-MEL-2) was > 100 µM (inactive). The GI50 (SK-MEL-5) was > 100 µM (inactive), the GI50 (SN12C) was > 100 µM (inactive) and the GI50 (SNB-19) was > 100 µM (inactive). For the same compound, the GI50 (SNB-75) was > 100 µM (inactive), the GI50 (SR) was > 10 µM (inactive) and the GI50 (SW-620) was > 100 µM (inactive). For the same compound, the GI50 (T47D) was > 100 µM (inactive), the GI50 (TK-10) was > 100 µM (inactive) and the GI50 (U-251) was > 100 µM (inactive). For the same compound, the GI50 (UACC-257) was > 100 µM (inactive) and the GI50 (UO-31) was > 100 µM (inactive).

In the case of `Cc1nc(C)c(N2CCN(C(=O)NC(CCC(=O)O)C(=O)O)CC2)c(O)n1` (configuration not stated), the GI50 (786-0) is reported as > 100 µM (inactive), the GI50 (A498) is reported as > 100 µM (inactive) and the GI50 (A549) is reported as > 100 µM (inactive). For the same compound, the GI50 (ACHN) was > 100 µM (inactive), the GI50 (BT-549) was > 100 µM (inactive) and the GI50 (CAKI-1) was > 100 µM (inactive). The GI50 (CCRF-CEM) was > 100 µM (inactive), the GI50 (COLO 205) was > 100 µM (inactive) and the GI50 (DU-145) was > 100 µM (inactive). For the same compound, the GI50 (EKVX) was > 100 µM (inactive), the GI50 (HCC 2998) was > 100 µM (inactive) and the GI50 (HCT-116) was > 100 µM (inactive). The GI50 (HCT-15) was over 100 µM, the GI50 (HL-60) was > 100 µM (inactive) and the GI50 (HOP-62) was > 100 µM (inactive). The GI50 (HOP-92) was > 100 µM (inactive), the GI50 (HT-29) was > 100 µM (inactive) and the GI50 (Hs-578T) was > 100 µM (inactive). For the same compound, the GI50 (IGROV-1) was > 100 µM (inactive), the GI50 (K562) was > 100 µM (inactive) and the GI50 (KM12) was > 100 µM (inactive). For the same compound, the GI50 (LOX IMVI) was > 100 µM (inactive), the GI50 (M14) was > 100 µM (inactive) and the GI50 (MCF7) was > 100 µM (inactive). For the same compound, the GI50 (MDA-MB-231) was > 100 µM (inactive), the GI50 (MDA-MB-435) was > 100 µM (inactive) and the GI50 (MDA-N) was > 100 µM (inactive). For the same compound, the GI50 (MOLT-4) was > 100 µM (inactive), the GI50 (Malme-3M) was > 100 µM (inactive) and the GI50 (NCI-H226) was > 100 µM (inactive). The GI50 (NCI-H23) was > 100 µM (inactive), the GI50 (NCI-H460) was > 100 µM (inactive) and the GI50 (NCI-H522) was > 100 µM (inactive). The GI50 (NCI/ADR-RES) was > 100 µM (inactive), the GI50 (OVCAR-3) was > 100 µM (inactive) and the GI50 (OVCAR-4) was > 100 µM (inactive). The GI50 (OVCAR-5) was > 100 µM (inactive), the GI50 (OVCAR-8) was > 100 µM (inactive) and the GI50 (PC-3) was > 100 µM (inactive). For the same compound, the GI50 (RPMI-8226) was > 100 µM (inactive), the GI50 (RXF 393) was > 100 µM (inactive) and the GI50 (SF-268) was > 100 µM (inactive). The GI50 (SF-295) was > 100 µM (inactive), the GI50 (SF-539) was > 100 µM (inactive) and the GI50 (SK-MEL-28) was > 100 µM (inactive). For the same compound, the GI50 (SK-OV-3) was > 100 µM (inactive), the GI50 (SN12C) was > 100 µM (inactive) and the GI50 (SNB-19) was > 100 µM (inactive). The GI50 (SNB-75) was < 0.01 µM (active), the GI50 (SR) was > 100 µM (inactive) and the GI50 (SW-620) was > 100 µM (inactive). For the same compound, the GI50 (T47D) was > 100 µM (inactive), the GI50 (TK-10) was > 100 µM (inactive) and the GI50 (U-251) was > 100 µM (inactive). The GI50 (UACC-257) was > 100 µM (inactive), the GI50 (UACC-62) was > 100 µM (inactive) and the GI50 (UO-31) was > 100 µM (inactive).
